This note sets out measurements from US9675663B2, “TUSC2 therapies” (Board of Regents, The University of Texas System, priority 2011, dated 2017).

Several values for one entry are separate records, joined by “and”; a condition that tells them apart may be missing. Equal entries are not always repeated.

Test [1] concerns HCC366 and H322 cells. The test is described as follows: Effect of AMPK inhibitor on FUS1/MK2206-induced cell death. As to conditions: AMPK inhibitor present. Type of test: cell-based, human. The method, then:
FIG. 23: The effect of AMPK inhibitor on FUS1/MK2206-induced cell death. Cell survival was assessed in HCC366 and H322 cells treated with FUS1 nanoparticles and various concentrations of MK2206 in the presence or absence of AMPK inhibitor Compound C. Graphs show relative cell survival (y-axis) at various concentrations of MK2206 (x-axis) with and without AMPK inhibitor as indicated.
(§1) To better determine the mechanism for synergistic FUS1/MK2206 effect, treated cells were subjected to an immunoblots to assess the phosphorylation status of cell signaling molecules. […] Thus, FUS1-increased sensitivity to MK2206 is associated with the down-regulation of AKT and mTOR phosphorylation and up-regulation of AMPK phosphorylation. In view of these studies a proposed FUS/MK2206 signaling pathway is provided as FIG. 25.

Test [2] deals with H1299 cells. Nature of the test: Colony formation assay. Type of test: cell-based, human. Set-up: Colony formation, groups 1-3 (replicates) / Colony formation, average: unit not given here. The following applies: for Colony formation normalized on EV: EV + PBS = 100%; for Colony formation, average / Colony formation, groups 1-3 (replicates): number after + = μg Erlotinib; for Colony formation normalized on pc301: pc301PBS = 100%. How it is done: FIG. 6: Fus1 and Erlotinib combined treatment effect on colony formation of H1299 cells. […] “EV” indicates empty vector; Fus1 indicates a vector containing Fus1; numerical values following “erlo” indicate μg of Erlotinib; PBS indicates Phosphate-Buffer Saline control. […]
(§2) To assess cooperative effects of tumor growth data between FUS-1 (FUST) and Erlotinib (Erlo) a Bayesian Bootstrapping analysis approach was used. The Pr(min(μF, μE)<μC|(data) was calculated i.e., the posterior probability that the minimum of the two posterior mean colony formation for FUS-1 alone, μF, or Erlotinib alone, μE, […] the mean posterior colony formation for the combination μC. This probability calculates the likelihood that average colony formation in the combination arm will be less than the minimum of the two single agent arms. Cooperative effects are shown if this posterior probability is large. Thus, the probability of cooperative effect ranges from 0.0 to 1.0 where 0 means no chance of a true cooperative effect given the data observed while 1 means 100% certainty of a cooperative effect given the data observed. The Statistical software S-PLUS 8.0 were used for all the analyses.

Test [3] has as its system A549 cells. The test is described as follows: Colony formation assay. Type of test: cell-based, human. The following applies: for Colony formation normalized on EV: EV + PBS = 100%; for Colony formation, average / Colony formation, groups 1-3 (replicates): number after + = μg Erlotinib; for Colony formation normalized on pc301: pc301PBS = 100%. The method, then:
FIG. 8: Fus1 and Erlotinib combined treatment effect on colony formation of A549 cells. […] “EV” indicates empty vector; Fus1 indicates a vector containing Fus1; numerical values following “+” indicate μg of Erlotinib; PBS indicates Phosphate-Buffer Saline control.
as §2

In test [4] the test system is H460 cells. Nature of the test: Colony formation assay. Type of test: cell-based, human. The following applies: for Colony formation normalized on EV: EV + PBS = 100%; for Colony formation, average / Colony formation, groups 1-3 (replicates): number after + = μg Erlotinib. How it is done:
FIG. 9: Fus1 and Erlotinib combined treatment effect on colony formation of H460 cells. […] “EV” indicates empty vector; Fus1 indicates a vector containing Fus1; numerical values following “+” indicate μg of Erlotinib; PBS indicates Phosphate-Buffer Saline control.
as §2

The test system of test [5] is H322 cells. Nature of the test: Colony formation assay. Type of test: cell-based, human. More on the design: Colony formation, groups 1-3 (replicates) / Colony formation, average: unit not given here. The following applies: for Colony formation normalized on EV: EV + PBS = 100%; for Colony formation, average / Colony formation, groups 1-3 (replicates): number after + = μg Erlotinib; for Colony formation normalized on pc301: pc301PBS = 100%. The method, then: FIG. 7: Fus1 and Erlotinib combined treatment effect on colony formation of H322 cells. […] “EV” indicates empty vector; Fus1 indicates a vector containing Fus1; numerical values following “+” indicate μg of Erlotinib; PBS indicates Phosphate-Buffer Saline control. […]
as §2

For test [6], the system named is phosphorylated AMPK, AKT, mTOR and S6K. The test is described as follows: Immunoblot of phosphorylated signaling proteins in FUS1/MK2206-treated cell lines. As to conditions: addition of MK2206; HCC366 or H322 cells. Type of test: cell-based, human. How it is done: FIG. 21: Immunoblot of p-AKT, p-AMPK and p-mTOR in FUS1/MK2206-treated cell lines. Phosphorylation specific antibodies were used to assess expression of phosphorylated AMPK, AKT, mTOR and S6K in HCC366 or H322 cells. Cells were treated with empty vector (EV); FUS1 nanoparticles (FUS1); MK2206; empty vector+MK2206 (EV+MK); or FUS1 nanoparticles+MK2206 (FUS1+MK) prior to assessment for phosphorylated protein expression. Immunoblot of β-actin was used as a loading control.
as §1

The subject of test [7] is H2887. Nature of the test: IC50 of MK2206 alone or with FUS1-nanoparticles. Type of test: cell-based. The following applies: Homo sapiens, NCI-H2887. The method, then: (§3) FIG. 17: Single drug treatment of MK2206 on lung cancer cells. […] Cell lines that were further analyzed are indicated by arrows.
(§4) FIG. 18: FUS1/MK2206-induced cell death in lung cancer cell lines. Graphs show the relative survival rates for the indicated cancer cells (y-axis) when contacted with empty vector (EV) or FUS1 nanoparticles in the presence of increasing concentrations of MK2206 (x-axis).
(§5) Single drug treatment with AKT inhibitor MK2206 was also assessed in a wide range of lung cancer cell lines. Cell lines indicated by arrows (H322, A549, H2887 and […]) were subjected to further analysis. First, each of the cell lines was treated with FUS1 nanoparticles or empty vector at increasing concentrations of MK2206. […] The effect of the combined therapy was especially evident in H2887, H322 and HCC366 cells. Next, the ability of combined FUS1/MK2206 treatment to inhibit colony formation was studied in the cell lines. […] Thus, FUS1 treatment is able to sensitize cancer cells to the effects of kinase inhibitors such as the AKT inhibitor MK2206. This effect was quantified relative to each studied cell line below in Table 13.

For test [8], the system named is A549. The test is described as follows: IC50 of MK2206 alone or with FUS1-nanoparticles. The following applies: Homo sapiens. Type of test: cell-based. The method, then: as §3, §4, §5
Test [9] relates to HCC366. The test is described as follows: IC50 of MK2206 alone or with FUS1-nanoparticles. Type of test: cell-based. The following applies: Homo sapiens. The method, then:
as §3, §4, §5

The test system of test [10] is H322. Nature of the test: IC50 of MK2206 alone or with FUS1-nanoparticles. The following applies: Homo sapiens, NCI-H322. Type of test: cell-based. How it is done: as §3, §4, §5

Take `c1cc(-c2cnn3cc(-c4ccc(OCCN5CCCCC5)cc4)cnc23)ccn1` [Compound C]: the “protection from FUS1/MK2206-mediated killing” value in test [1] is on record as “partially protect cancer cells from FUS1/MK2206-mediated killing”.
`C#Cc1cccc(Nc2ncnc3cc(OCCOC)c(OCCOC)cc23)c1` [Erlotinib]: the “Colony formation normalized on EV” value in test [2] (listed as EV + 1) was determined as 97%; in test [2] (listed as EV + 2.3), 47%; in test [3] (listed as EV + 1) it was 93%; in [3] (listed as EV + 2.3) it was 71%; in test [4] (listed as EV + 1), 64%; in [4] (listed as EV + 2.3), 40%. Moreover, the “Colony formation normalized on EV” value in test [5] (listed as EV + 1) was determined as 78%; in test [5] (listed as EV + 2.3) it was 37%. Moreover, the “Colony formation, average” value amounted to 16866 in test [2] (listed as EV + 1); 8142 in [2] (listed as EV + 2.3); 29960 in test [2] (listed as pc301 + 1); 21288 in [2] (listed as pc301 + 2.3); 2652 in test [3] (listed as EV + 1); 2044 in test [3] (listed as EV + 2.3). In addition, the “Colony formation, average” value in test [3] (listed as pc301 + 1) amounted to 3203; in test [3] (listed as pc301 + 2.3), 1693; in [4] (listed as EV + 1), 1360; in test [4] (listed as EV + 2.3), 859; in test [5] (listed as EV + 1), 38570; in test [5] (listed as EV + 2.3), 18091. Also, the “Colony formation, average” value in test [5] (listed as pc301 + 1) was 39180; in test [5] (listed as pc301 + 2.3), 28211. Further, the “Colony formation, groups 1-3 (replicates)” value in test [2] (listed as EV + 1) is 18287.0 and 15301.0 and 17010.0; in test [2] (listed as EV + 2.3), 9216.0 and 8082.0 and 7128.0; in test [2] (listed as pc301 + 1), 31957.0 and 25107.0 and 32817.0; in [2] (listed as pc301 + 2.3), 24425.0 and 18192.0 and 21246.0; in [3] (listed as EV + 1), 3083 and 2538 and 2334; in test [3] (listed as EV + 2.3), 2484 and 1910 and 1738. In addition, the “Colony formation, groups 1-3 (replicates)” value in test [3] (listed as pc301 + 1) was 3779 and 2436 and 3393; in test [3] (listed as pc301 + 2.3) it was 1625 and 1803 and 1651; in test [4] (listed as EV + 1), 1216 and 1393 and 1470; in test [4] (listed as EV + 2.3), 750 and 968 and 858; in [5] (listed as EV + 1) it was 43621 and 36971 and 35119; in [5] (listed as EV + 2.3), 20293 and 16469 and 17511. For the same compound, the “Colony formation, groups 1-3 (replicates)” value in test [5] (listed as pc301 + 1) is 44761 and 37701 and 35079; in test [5] (listed as pc301 + 2.3), 28610 and 28943 and 27080. In addition, the “Colony formation normalized on pc301” value in test [2] (listed as EV + 1) is given as 40%; in [2] (listed as EV + 2.3), 19%; in test [2] (listed as pc301 + 1) it was 71%; in [2] (listed as pc301 + 2.3) it was 50%; in test [3] (listed as EV + 1) it was 47%; in test [3] (listed as EV + 2.3), 36%. Besides, the “Colony formation normalized on pc301” value came out at 57% in test [3] (listed as pc301 + 1); 30% in test [3] (listed as pc301 + 2.3); 65% in [5] (listed as EV + 1); 30% in test [5] (listed as EV + 2.3); 66% in test [5] (listed as pc301 + 1); 47% in test [5] (listed as pc301 + 2.3).
Broadly, the IC50 is the concentration that inhibits the measured activity by half. `NC1(c2ccc(-c3nc4ccn5c(=O)[nH]nc5c4cc3-c3ccccc3)cc2)CCC1` [MK2206]: the “phosphorylated AKT levels” value in test [6] is “significantly reduced phosphorylated AKT levels”. Also, the IC50 in test [7] was determined as 16.5 µM; in test [8], 2860 nM; in [9], 18.4 µM; in test [10], 20.4 µM.
